Experimental data as given in the CheMixHub ionic liquid set.

Assay: xn = mol fraction of the nth substance listed
Conditions: 100 kPa

CCCC[n+]1ccn(C)c1.O=S(=O)([N-]S(=O)(=O)C(F)(F)F)C(F)(F)F + CCO
Conditions | viscosity [mPa·s]
305.12 K, x1 = 1 | 38.4
306.03 K, x1 = 0.2688 | 4.76
306.33 K, x1 = 0.5784 | 13.83
306.33 K, x1 = 0.8264 | 24.6
306.64 K, x1 = 0.2688 | 4.69
306.64 K, x1 = 0.6609 | 16.39
306.94 K, x1 = 0.2129 | 3.8
307.24 K, x1 = 0.4215 | 8.27
307.24 K, x1 = 0.4606 | 9.23
308.15 K, x1 = 0.2688 | 4.53
308.15 K, x1 = 0.6609 | 15.67
308.45 K, x1 = 0.2129 | 3.67
308.45 K, x1 = 0.6609 | 15.53
308.45 K, x1 = 0.747 | 19.5
308.76 K, x1 = 0.4215 | 7.93
308.76 K, x1 = 0.5784 | 12.88
308.76 K, x1 = 0.747 | 19.3
309.06 K, x1 = 0.2688 | 4.44
309.67 K, x1 = 0.4215 | 7.73
309.67 K, x1 = 1 | 32.4
309.97 K, x1 = 0.4606 | 8.58
309.97 K, x1 = 0.747 | 18.6
310.58 K, x1 = 0.747 | 18.3
310.88 K, x1 = 0.2129 | 3.47
310.88 K, x1 = 0.5784 | 12.12
310.88 K, x1 = 0.8264 | 20.9
311.18 K, x1 = 0.4606 | 8.31
311.48 K, x1 = 0.2129 | 3.42
311.79 K, x1 = 0.4606 | 8.18
311.79 K, x1 = 0.5784 | 11.8
311.79 K, x1 = 0.747 | 17.58
311.79 K, x1 = 0.8264 | 20.3
312.09 K, x1 = 0.2688 | 4.13
312.09 K, x1 = 0.6609 | 13.95
312.39 K, x1 = 0.2688 | 4.1
312.39 K, x1 = 0.4606 | 8.05
312.7 K, x1 = 0.2688 | 4.07
313 K, x1 = 0.747 | 16.94
313 K, x1 = 1 | 28.8
313.3 K, x1 = 0.4215 | 7.02
313.61 K, x1 = 0.8264 | 19
313.91 K, x1 = 0.6609 | 13.23
313.91 K, x1 = 0.747 | 16.47
314.21 K, x1 = 0.2129 | 3.21
314.21 K, x1 = 0.2688 | 3.93
314.21 K, x1 = 0.747 | 16.32
314.52 K, x1 = 0.5784 | 10.92
314.52 K, x1 = 0.747 | 16.17
314.82 K, x1 = 0.6609 | 12.88
315.12 K, x1 = 0.8264 | 18.1
315.42 K, x1 = 0.2688 | 3.82
315.42 K, x1 = 0.6609 | 12.66
315.73 K, x1 = 0.4215 | 6.59
315.73 K, x1 = 0.5784 | 10.55
315.73 K, x1 = 0.6609 | 12.55
316.03 K, x1 = 0.2688 | 3.77
316.33 K, x1 = 0.4606 | 7.27
316.64 K, x1 = 0.4215 | 6.44
316.64 K, x1 = 0.5784 | 10.29
316.64 K, x1 = 1 | 25.4
316.94 K, x1 = 0.6609 | 12.12
316.94 K, x1 = 0.8264 | 17
317.24 K, x1 = 0.6609 | 12.01
317.55 K, x1 = 0.2688 | 3.64
317.55 K, x1 = 0.4215 | 6.29
317.55 K, x1 = 0.5784 | 10.03
317.85 K, x1 = 0.4215 | 6.24
317.85 K, x1 = 0.6609 | 11.8
318.15 K, x1 = 0.2688 | 3.58
318.15 K, x1 = 0.4606 | 6.94
318.76 K, x1 = 0.4606 | 6.83
318.76 K, x1 = 0.5784 | 9.69
318.76 K, x1 = 1 | 23.7
319.06 K, x1 = 0.2129 | 2.87
319.67 K, x1 = 0.4215 | 5.97
319.67 K, x1 = 0.747 | 13.83
319.97 K, x1 = 0.4606 | 6.63
319.97 K, x1 = 0.5784 | 9.37
320.27 K, x1 = 0.5784 | 9.29
320.27 K, x1 = 0.747 | 13.58
320.27 K, x1 = 0.8264 | 15.24
320.58 K, x1 = 0.4215 | 5.83
321.18 K, x1 = 0.4606 | 6.43
321.18 K, x1 = 0.6609 | 10.73
321.48 K, x1 = 0.747 | 13.09
321.79 K, x1 = 0.2688 | 3.29
321.79 K, x1 = 0.4606 | 6.33
322.09 K, x1 = 0.2129 | 2.67
322.09 K, x1 = 0.4215 | 5.62
322.09 K, x1 = 1 | 21.3
322.39 K, x1 = 0.747 | 12.74
322.7 K, x1 = 0.747 | 12.63
323 K, x1 = 0.4606 | 6.15
